Drawing on ChEMBL document CHEMBL5131539, “Insights on JAK2 Modulation by Potent, Selective, and Cell-Permeable Pseudokinase-Domain Ligands” (J Med Chem, 2022), this text covers inhibition, Kd and permeability for eleven compounds.

Active and inactive are the calls of the source. No cut-off for these calls is given here.

The target of data set [1] is T1, Tyrosine-protein kinase JAK2 (Homo sapiens, UniProt O60674). The data set is described as follows: Inhibition of JAK2 JH2 (unknown origin) expressed in baculovirus infected Sf9 cells at 50 uM incubated upto 30 mins in the presence of tracer by competitive fluorescence polarization analysis relative to control.
T1 sequence (O60674 whole entry): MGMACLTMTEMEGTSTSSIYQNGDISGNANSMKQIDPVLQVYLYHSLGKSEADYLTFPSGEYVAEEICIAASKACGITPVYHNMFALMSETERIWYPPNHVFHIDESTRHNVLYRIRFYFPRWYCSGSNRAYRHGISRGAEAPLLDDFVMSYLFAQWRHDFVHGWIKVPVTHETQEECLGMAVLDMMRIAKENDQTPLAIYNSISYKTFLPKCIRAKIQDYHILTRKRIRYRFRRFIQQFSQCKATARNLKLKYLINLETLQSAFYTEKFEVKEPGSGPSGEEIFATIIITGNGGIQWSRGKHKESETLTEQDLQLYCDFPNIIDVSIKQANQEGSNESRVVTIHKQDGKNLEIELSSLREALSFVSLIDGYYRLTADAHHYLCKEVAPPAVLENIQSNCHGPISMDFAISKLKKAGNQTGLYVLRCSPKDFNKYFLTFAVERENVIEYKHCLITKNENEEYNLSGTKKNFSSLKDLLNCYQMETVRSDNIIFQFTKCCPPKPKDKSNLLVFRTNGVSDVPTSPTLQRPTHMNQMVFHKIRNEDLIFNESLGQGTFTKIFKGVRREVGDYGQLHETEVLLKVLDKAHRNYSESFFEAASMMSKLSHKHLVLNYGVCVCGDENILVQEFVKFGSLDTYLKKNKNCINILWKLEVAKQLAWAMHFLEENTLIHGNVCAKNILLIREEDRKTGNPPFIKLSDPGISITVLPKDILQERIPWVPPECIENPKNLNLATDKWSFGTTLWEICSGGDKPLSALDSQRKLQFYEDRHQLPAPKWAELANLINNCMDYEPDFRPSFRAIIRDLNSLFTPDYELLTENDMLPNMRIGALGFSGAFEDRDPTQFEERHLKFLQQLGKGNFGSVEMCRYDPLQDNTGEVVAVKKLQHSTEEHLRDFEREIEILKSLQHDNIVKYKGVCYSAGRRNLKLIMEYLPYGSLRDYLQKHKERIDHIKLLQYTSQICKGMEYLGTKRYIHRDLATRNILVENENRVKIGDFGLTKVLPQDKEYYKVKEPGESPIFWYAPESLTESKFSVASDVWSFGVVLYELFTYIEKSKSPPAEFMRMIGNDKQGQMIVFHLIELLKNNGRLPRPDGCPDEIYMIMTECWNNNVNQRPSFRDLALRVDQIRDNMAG
The target in data set [2] is T1, Tyrosine-protein kinase JAK2. Kind of data set: biochemical.
Description: Binding affinity to JAK2 JH2 (unknown origin) expressed in baculovirus infected Sf9 cells assessed as dissociation constant measured upto 30 mins in presence of tracer by competitive fluorescence polarization assay
Data set [3] relates to Tyrosine-protein kinase JAK2 (Homo sapiens), O60674 [V617F]. The data set is described as follows: Inhibition of JAK2 JH2 V617F mutant in human HEL cells assessed as reduction in STAT5 phosphorylation at 20 uM measured after 3 hrs by Western blotting analysis. The data set is classed as cell-based.
Chain of Tyrosine-protein kinase JAK2 (Homo sapiens), O60674 [V617F] (O60674 whole entry V617F): as the sequence (O60674 whole entry) above, with V617F counted along it
Data set [4] concerns the target T1, Tyrosine-protein kinase JAK2. The data set is described as follows: Inhibition of wild type JAK2 JH2 in human TF-1 cells assessed as reduction in STAT5 phosphorylation at 10 to 20 uM incubated for 1 hrs by Western blotting analysis. The data set is classed as cell-based. The conditions noted are these: dose 10-20 µM.
Data set [5] has the same target. The data set is described as follows: biochemical. This is another data set of the same source.
Description: Binding affinity to wild type JAK2 JH1 (unknown origin) expressed in baculovirus infected Sf9 cells assessed as dissociation constant measured upto 30 mins in presence of tracer by competitive fluorescence polarization assay
The conditions of data set [6]: pampa, pH 7.4, 18 h.
Description: Permeability of the compound in PBS buffer at pH 7.4 measured after 18 hrs by UV plate reader based PAMPA assay
The test system of data set [7] is Tyrosine-protein kinase JAK2 (Homo sapiens), O60674 [V617F]. The data set is described as follows: Inhibition of JAK2 JH2 V617F mutant in human HEL cells assessed as reduction in STAT5 phosphorylation at 10 to 20 uM incubated for 1 hrs by Western blotting analysis. The conditions noted are these: dose 10-20 µM. Type of data set: cell-based.
Data set [8] addresses Tyrosine-protein kinase JAK2 (Homo sapiens, UniProt O60674, V617F). The data set is described as follows: biochemical.
Description: Binding affinity to JAK2 JH2 V617F mutant (unknown origin) expressed in baculovirus infected Sf9 cells assessed as dissociation constant measured upto 30 mins in presence of tracer by competitive fluorescence polarization assay

Chain of Tyrosine-protein kinase JAK2 (Homo sapiens, UniProt O60674, V617F) (O60674 whole entry V617F): as the sequence (O60674 whole entry) above, with V617F counted along it

With `Nc1nc(Nc2ccc(S(N)(=O)=O)cc2)nn1C(=O)Nc1ccc(-c2ccccc2)cc1`, in data set [1], the inhibition was found to be 30.5%.

`Nc1nc(Nc2ccc(S(N)(=O)=O)cc2)nn1C(=O)Nc1ccc(-c2cncc(C(=O)O)n2)cc1` came in with a dissociation constant (Kd) in data set [2] of 1400 nM.

`Nc1nc(Nc2ccc(S(N)(=O)=O)cc2)nn1C(=O)Nc1ccc(-c2cccc(C(=O)O)n2)cc1` gave a Kd in data set [2] of 934 nM.

In data set [2], `Nc1nc(Nc2ccc(S(N)(=O)=O)cc2)nn1C(=O)Nc1ccc(-c2ccc(C(=O)O)cc2)cc1` had a Kd of 155 nM.

Take `CNC(=O)c1ccc(Nc2nc(N)n(C(=O)Nc3ccc(-c4ccc(OCc5ccccc5)c(C(=O)O)c4)cc3)n2)cc1`: the inhibition entry in data set [3], in data set [4] and in data set [7] was “Active” in each case. Besides, the Kd in data set [5] is 6810 nM; in data set [8], 43 nM. For the same compound, the permeability in data set [6] is listed as 0.24 10^-6 cm/s.

With `COC(=O)c1cccc(-c2ccc(NC(=O)n3nc(Nc4ccc(S(N)(=O)=O)cc4)nc3N)cc2)c1`, the permeability in data set [6] is reported as 0.09 10^-6 cm/s. The inhibition in data set [1] is 27%.

Compound `Nc1nc(Nc2ccc(S(N)(=O)=O)cc2)nn1C(=O)Nc1ccc(-c2cncc(C(=O)O)c2)cc1` yielded a Kd in data set [2] of 652 nM.

As to `Nc1nc(Nc2ccc(S(N)(=O)=O)cc2)nn1C(=O)Nc1ccc(-c2cc(OCc3ccccc3)cc(C(=O)O)c2)cc1`, the Kd in data set [5] was 3360 nM; in data set [2], 75 nM; in data set [8], 62 nM. Besides, the permeability in data set [6] was 1.15 10^-6 cm/s.

In the case of `Nc1nc(Nc2ccc(S(N)(=O)=O)cc2)nn1C(=O)Nc1ccc(-c2ccnc(C(=O)O)c2)cc1`, the results for the Kd in data set [5], in data set [2] and in data set [8] were 8100 nM, 394 nM and 131 nM, respectively.

As for `Nc1nc(Nc2ccc(S(N)(=O)=O)cc2)nn1C(=O)Nc1ccc(-c2cccc(C(=O)O)c2)cc1`, in data set [6], the permeability is 0.015 10^-6 cm/s. The affinity in data set [2], expressed as Kd, was 129 nM.

For `CNC(=O)c1ccc(Nc2nc(N)n(C(=O)Nc3ccc(-c4cc(OCc5ccccc5)cc(C(=O)O)c4)cc3)n2)cc1`, the values for the Kd in data set [5], in data set [2] and in data set [8] were 5910 nM, 44 nM and 50 nM, respectively. The permeability in data set [6] is 0.971 10^-6 cm/s.
